The test system of one data set is IL-17. Description: Psoriasis experiment (imiquimod model): inflammatory cytokine in serum (ELISA). Conditions: for level of IL-17 / inflammatory cytokines in psoriasis model mice: compared with the model group. It counts as in vivo, mice.
Data set [1] is described as follows: Determination of stability in plasma in vitro, human plasma (LC-MS/MS). Format: in vitro ADME. Conditions: same experimental conditions (human and mouse plasma). The method, then:
Pharmacological Example 3: Determination of Stability in Plasma in Vitro
The stock solution was diluted with acetonitrile to obtain a working solution at a concentration of 100 µ M. The solution should be freshly prepared prior to use and maintained at room temperature during application.
990 µ L of human and mouse plasma (N = 2) were separately pipetted and pre-incubated at 37 °C for 5 min. Then, 10 µ L of the test compound working solution was added and vortexed thoroughly (the final concentration of the test compound was 1 µ M). Immediately, 50 µ L of the plasma sample was added to 150 µ L of ice-cold precipitation agent containing the internal standard and vortexed thoroughly as the 0-time sample. The remaining plasma sample was continuously incubated at 37 °C, and 50 µ L of the plasma sample was aspirated and added to 150 µ L of ice-cold precipitation agent containing the internal standard at preset sampling time points, followed by thorough vortexing. The collected samples were stored in a freezer at -60 to -90 °C until analysis.
The concentration of the test compound was determined by LC-MS/MS, and its degradation was monitored. (semi-quantitative determination was conducted by comparing the peak area of the analyte to that of the internal standard).

Data set [2] concerns inflammatory cytokines (TNF-α). Description: Anti-uveitis pharmacodynamic experiment (LPS model): inflammatory cytokines in aqueous humor (ELISA). It counts as in vivo, male SD rats. Conditions: values not given. The method, then: Pharmacological Example 5. Pharmacodynamic Experiment on Anti-Uveitis
Test samples: Compounds 23 and 26 were prepared as 5 mg/5 mL ophthalmic suspensions with reference to the formulation of Fluorometholone Eye Drops, and stored at room temperature protected from light until use.
Positive control drug: Fluorometholone Eye Drops (specification: 5 mL/5 mg; Santen Pharmaceutical (CHINA) Co., Ltd.; Lot No. : J20180068) was used as the positive control drug and stored at room temperature protected from light until use.
Fifty male SD rats underwent a one-week adaptive feeding period. The animals were randomly divided into 5 groups: Group 1 served as the blank control group, and Groups 2 to 5 were the model group, fluorometholone group, compound 23 group, and compound 26 group, respectively. Groups 2 to 5 were used to establish rat uveitis models by single subcutaneous injection of 1 mg/kg LPS (Salmonella; Sigma; Lot No. 0000164114) into the plantar tissue of the hindpaw. Salmonella endotoxin was dissolved in normal saline to prepare an injection solution at a concentration of 2 mg/mL, which was injected subcutaneously at 1 mg/kg into the plantar tissue of one paw of the rats. Group 1 was injected with an equal volume of normal saline.
After modeling, 40 µL of normal saline was administered to the eyes (bilateral) of the rats in the blank control group and model group, and 40 µL of the corresponding drugs were administered to the eyes (bilateral) of the […] in the compound 23 group, compound 26 group, and positive drug fluorometholone group, 3 times a day for 2 days. Table 8. Animal grouping and drug administration dosages
Thirty hours after modeling, aqueous humor was collected from both eyes of rats, and partial eyeball tissues of rats were collected. The level of the inflammatory cytokines (TNF-α) was detected using a rat ELISA assay kit.
Statistical analysis was performed using SPSS software. Measurement data were expressed as mean ± standard deviation. One-way ANOVA was used for intergroup comparisons. For data with homogeneous variance, LSD test was used; for data with heterogeneous variance, Dunnett-t test was used. A value of P < 0.05 was considered statistically significant.

The next data set deals with psoriasis model mice. Kind of data set: Psoriasis experiment (imiquimod model): skin lesion (PASI) score. As to conditions: for PASI scores: compared with the model group. Format: in vivo.
Data set [3] concerns dry eye syndrome model New Zealand rabbits. Description: Dry eye syndrome experiment (benzalkonium chloride model): corneal fluorescein sodium staining. It counts as in vivo, male New Zealand White rabbits. Conditions: compared with the model group.
A further data set has as its system asthma model mice. Description: Anti-asthma pharmacodynamic experiment: airway hyperresponsiveness (Penh) after methacholine challenge. As to conditions: compared with the model group. Format: in vivo, female BALB/c mice.
Data set [4] concerns inflammatory cytokines IL-6 and IL-12. Description: Anti-asthma pharmacodynamic experiment: inflammatory cytokines in bronchoalveolar lavage fluid (ELISA). As to conditions: compared with the model group. Format: in vivo, female BALB/c mice. For orientation: ELISA stands for enzyme-linked immunosorbent assay.
Experimental: Pharmacological Example 4: Pharmacodynamic Experiment on Anti-Asthma
The suspensions were stored at room temperature protected from light until use.
Positive control drug: Budesonide Suspension for Inhalation (specification: 2 mL: 1 mg; AstraZeneca Inc.; Lot No. : 327392) was diluted with injection-grade sodium chloride solution to 0.3 mg/ml as the positive control drug, and stored at room temperature protected from light until use.
Sixty female BALB/c mice underwent a one-week adaptive feeding period. Ten mice were randomly selected as the blank control group, while 50 mice were selected to establish asthma models.
From days 21 to 23 after sensitization, the mice in the model group and drug administration group were exposed to a 30-minute aerosol challenge with 5% OVA, while the mice in the blank control group were exposed to normal saline aerosol for the same duration.
At the end of airway hyperresponsiveness testing in mice, the mice were euthanized by cervical dislocation and fixed on a dissection tray. The abdomens and thoracic cavities of the mice were opened, and the skin and excess tissues of the neck were excised to expose the trachea of the mice. A small incision was made transversely on the trachea with a small scissors. A pre-treated 1 mL syringe needle was inserted and fastened with surgical thread. A 1 mL syringe was used to slowly inject 0.5 mL of pre-chilled phosphate-buffered saline (PBS) into the lungs of the mice, followed by slow aspiration. Each mouse was lavaged once, and a total of approximately 0.4 ml of lavage fluid was collected. The bronchoalveolar lavage fluid was centrifuged at 3000 rpm for 5 min. After centrifugation, the supernatant was aliquoted, and the levels of inflammatory cytokines IL-6 and IL-12 in the bronchoalveolar lavage fluid were determined using ELISA kits.
Data set [5] deals with T1, mineralocorticoid receptor (MR) (Homo sapiens, UniProt P08235).
T1 sequence (P08235 726-984): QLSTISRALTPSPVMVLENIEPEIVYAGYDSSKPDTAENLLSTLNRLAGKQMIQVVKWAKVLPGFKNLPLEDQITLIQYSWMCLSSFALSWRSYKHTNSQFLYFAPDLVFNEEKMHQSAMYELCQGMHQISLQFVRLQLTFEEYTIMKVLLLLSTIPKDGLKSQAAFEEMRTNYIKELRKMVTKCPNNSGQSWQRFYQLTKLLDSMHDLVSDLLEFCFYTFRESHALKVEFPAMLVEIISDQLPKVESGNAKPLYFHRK
Kind of data set: Assay for agonist activity on mineralocorticoid receptor (luciferase reporter, HEK293 cells transfected with pBIND-MR plasmid). It counts as cell-based. A digest of the protocol:
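HEK293 cells transiently transfected with pBIND-MR or pBIND-PR, seeded in phenol red-free DMEM with 5% charcoal-stripped serum. Compounds tested as 12-point 4-fold dilutions from 50 µM in duplicate, 0.1% DMSO blank. Luciferase luminescence read, EC50 by nonlinear fit.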
Background: Reporter assays use an easily measured gene product as a stand-in for the process of interest.

In the case of `C[C@]12C=CC(=O)C=C1CC[C@H]1[C@@H]3C[C@H]4OC(c5ccc(CSC6CCOC6=O)cn5)O[C@@]4(C(=O)CO)[C@@]3(C)C[C@H](O)[C@@]12Cl` (stereo partly drawn) [Compound 51, (6aS,6bR,7S,8aS,8bS,11aR,12aS,12bS)-6b-Chloro-7-hydroxy-8b-(2-hydroxyacetyl)-6a,8a-dimethyl-10-(5-(((2-oxotetrahydrofuran-3-yl)thio)methyl)pyridin-2-yl)-1,2,6a,6b,7,8,8a,8b,11a,12,12a,12 b-dodecahydro-4H-naphtho[2',1':4,5]indeno[1,2-d][1,3]dioxol-4-one], the “level of IL-17 / inflammatory cytokines in psoriasis model mice” value with IL-17 is given as “significantly inhibited inflammatory cytokines in the skin of psoriasis model mice”. Further, the plasma instability entry in data set [1] is given as “exhibited the characteristic of plasma instability”. The “inflammatory cytokines in aqueous humor” value in data set [2] is on record as “suppressed inflammatory cytokines in aqueous humor”. In addition, in the data set with psoriasis model mice, the PASI scores entry was “significantly decreased PASI scores on day 7”. In data set [3], the “inflammatory response on the ocular surface / ocular symptoms” value is given as “significantly alleviated the ocular symptoms in dry eye syndrome model New Zealand rabbits”. In the data set on asthma model mice, the “Effects on airway hyperresponsiveness (Penh values) in mice” value is given as “significantly decreased the Penh values in mice”. Besides, the “Effects on inflammatory cytokines in bronchoalveolar lavage fluid of mice” value in data set [4] is “pharmacological effects similar to those of compound 23”. Also, the target selectivity entry in data set [5] (MR/GR and PR/GR, same experimental conditions) is “target selectivity comparable to that of compound 23”.

Consider `C[C@]12C=CC(=O)C=C1CC[C@H]1[C@@H]3C[C@H]4OC(c5ccc(CSC6CCOC6=O)cc5)O[C@@]4(C(=O)CO)[C@@]3(C)C[C@H](O)[C@@]12F` (stereo partly drawn) [Compound 17, (6aS,6bR,7S,8aS,8bS,11aR,12aS,12bS)-6b-Fluoro-7-hydroxy-8b-(2-hydroxyacetyl)-6a,8a-dimethyl-10-(4-(((2-oxotetrahydrofuran-3-yl)thio)methyl)phenyl)-1,2,6a,6b,7,8,8a,8b,11a,12,12a,12b-do decahydro-4H-naphtho[2',1':4,5]indeno[1,2-d][1,3]dioxol-4-one], for which, in the data set on IL-17, the “level of IL-17 / inflammatory cytokines in psoriasis model mice” value is given as “significantly decreased the level of IL-17”. Moreover, the “IL-17” value in the data set with IL-17 (serum, day 8 of modeling, 0.2 g cream per mouse daily for 7 days) is recorded as 31.30 ± 14.99 pg/mL. Besides, the plasma instability entry in data set [1] is recorded as “exhibited the characteristic of plasma instability”. In data set [2], the “inflammatory cytokines in aqueous humor” value is reported as “suppressed inflammatory cytokines in aqueous humor”. In the data set on psoriasis model mice, the PASI scores result is listed as “PASI scores significantly decreased on day 7”. Also, the PASI score with psoriasis model mice (day 8 of modeling, 0.2 g cream per mouse daily for 7 days (compounds 1 mg/g, fluticasone propionate 0.5 mg/g)) is listed as 4.5 ± 0.6. Besides, in data set [3], the “inflammatory response on the ocular surface / ocular symptoms” value is given as “significantly alleviated the ocular symptoms in dry eye syndrome model New Zealand rabbits”. In the data set with asthma model mice, the “Effects on airway hyperresponsiveness (Penh values) in mice” value was “significantly decreased the Penh values in mice”. Moreover, the “Effects on inflammatory cytokines in bronchoalveolar lavage fluid of mice” value in data set [4] is “pharmacological effects similar to those of compound 23”. In data set [5] (EC50 of agonist activity, HEK293 reporter cells, top concentration 50 µM, read-out: Nuclear receptor enzyme activity (nM) MR), the EC50 was greater than 50000 nM. For the same compound, the “Target selectivity MR/GR” value in data set [5] (ratio of EC50 values) is given as > 1.7×10^5.

These data come from patent EP4635969A1, “NOVEL GLUCOCORTICOID, METHOD FOR PREPARING SAME, AND USE THEREOF” (Tianjin Pharmaceutical Biotechnology Co., Ltd., priority 2022, dated 2024).
